18 compounds from US11173151B2, “Substituted triazole derivatives and uses thereof” (BAYER AKTIENGESELLSCHAFT, priority 2017, dated 2021) can be followed below.

For assay [1], the target named is T1, human V2 receptor (Homo sapiens, UniProt P30518).
T1 construct: expressed in transfected cells; host or cells: CHO K1 (ATCC) expressing firefly luciferase under a CRE-responsive promoter
In words: Cellular in vitro assay for determining vasopressin receptor activity, V2 receptor cell line (CHO, CRE-luciferase). Type of assay: cell-based. The settings on record: CHO cell line transfected with human V2 receptor; [Arg8]-vasopressin at EC50 concentration, 3 hours; read-out: IC50 hV2.

In assay [2] the target is T2, human V1a receptor (Homo sapiens, UniProt P37288).
T2 construct: expressed in transfected cells; host or cells: CHO K1 (ATCC), also stably transfected with a modified aequorin
In words: Cellular in vitro assay for determining vasopressin receptor activity, V1a receptor cell line (CHO, aequorin luminescence). The note with it: for pIC50: CHO cell line transfected with human V1a receptor, [Arg]-vasopressin at EC50 concentration, read-out: IC50 hV1a; for ratio IC50 hV2/hV1a: selectivity ratio IC50 hV2 / IC50 hV1a. Type of assay: cell-based. The method in brief:
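Cells were plated the day before in medium containing 5 μg/ml coelenterazine and kept at 37° C. Compounds at various concentrations were then added for 10 minutes. Next, [Arg]-vasopressin at EC50 was applied and light output recorded at once, yielding IC50.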

Structures are written as SMILES. pIC50: −log10 of the molar value.

T1 sequence (P30518 whole entry): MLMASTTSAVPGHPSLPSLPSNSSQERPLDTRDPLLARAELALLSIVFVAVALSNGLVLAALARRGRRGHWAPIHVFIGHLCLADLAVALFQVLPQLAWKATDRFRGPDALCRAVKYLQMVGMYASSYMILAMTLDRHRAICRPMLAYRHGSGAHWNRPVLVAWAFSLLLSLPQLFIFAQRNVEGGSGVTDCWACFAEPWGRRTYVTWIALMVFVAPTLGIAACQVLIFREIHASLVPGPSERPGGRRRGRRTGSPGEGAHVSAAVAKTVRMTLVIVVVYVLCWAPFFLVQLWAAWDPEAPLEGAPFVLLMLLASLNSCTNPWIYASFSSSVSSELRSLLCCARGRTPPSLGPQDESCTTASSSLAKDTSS
T2 sequence (P37288 whole entry): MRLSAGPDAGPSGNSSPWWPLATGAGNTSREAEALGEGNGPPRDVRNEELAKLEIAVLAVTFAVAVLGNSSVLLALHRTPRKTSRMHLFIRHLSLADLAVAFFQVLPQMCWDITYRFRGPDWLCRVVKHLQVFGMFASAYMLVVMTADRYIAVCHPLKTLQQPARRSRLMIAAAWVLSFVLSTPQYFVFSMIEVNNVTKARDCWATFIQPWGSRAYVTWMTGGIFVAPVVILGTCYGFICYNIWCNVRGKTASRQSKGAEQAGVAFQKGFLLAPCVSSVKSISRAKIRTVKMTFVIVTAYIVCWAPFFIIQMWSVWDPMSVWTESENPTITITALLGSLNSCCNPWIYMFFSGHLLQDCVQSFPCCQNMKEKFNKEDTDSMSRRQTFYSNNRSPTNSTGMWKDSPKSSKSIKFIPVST

Regarding `O=C1CCC(NC(=O)c2ccccc2-n2cnc(Cn3nc(-c4ccc(Cl)cc4)n(CC(O)C(F)(F)F)c3=O)n2)CN1` (single isomer, unassigned) [Example 193, 2-[3-({3-(4-Chlorophenyl)-5-oxo-4-[3,3,3-trifluoro-2-hydroxypropyl]-4,5-dihydro-1H-1,2,4-triazol-1-yl}methyl)-1H-1,2,4-triazol-1-yl]-N-[6-oxopiperidin-3-yl]benzamide], the negative-log IC50 (pIC50) in assay [1] is 5.51; in assay [2], 7.10. Moreover, the “ratio IC50 hV2/hV1a” value in assay [2] is 38.8.
For `CC(C)(N)CNc1ccncc1-n1cnc(Cn2nc(-c3ccc(Cl)cc3)n(C[C@H](O)C(F)(F)F)c2=O)n1` [Example 1, 2-[(1-{4-[(2-Amino-2-methylpropyl)amino]pyridin-3-yl}-1H-1,2,4-triazol-3-yl)methyl]-5-(4-chlorophenyl)-4-[(2S)-3,3,3-trifluoro-2-hydroxypropyl]-2,4-dihydro-3H-1,2,4-triazol-3-one] the same measures were 5.10, 5.71 and 4.0.
In the case of `CC(C)(O)CNc1ccncc1-n1cnc(Cn2nc(-c3ccc(Cl)cc3)n(C[C@H](O)C(F)(F)F)c2=O)n1` [Example 2, 5-(4-Chlorophenyl)-2-[(1-{4-[(2-hydroxy-2-methylpropyl)amino]pyridin-3-yl}-1H-1,2,4-triazol-3-yl)methyl]-4-[(2S)-3,3,3-trifluoro-2-hydroxypropyl]-2,4-dihydro-3H-1,2,4-triazol-3-one], in assay [1], the negative-log IC50 (pIC50) was 6.68. For the same compound, in assay [2], the negative logarithm of the IC50 (pIC50) is 6.23 and the “ratio IC50 hV2/hV1a” value was 0.4.
For `NC1(CNc2ccncc2-n2cnc(Cn3nc(-c4ccc(Cl)cc4)n(C[C@H](O)C(F)(F)F)c3=O)n2)CC1` [Example 3, 2-{[1-(4-{[(1-Aminocyclopropyl)methyl]amino}pyridin-3-yl)-1H-1,2,4-triazol-3-yl]methyl}-5-(4-chlorophenyl)-4-[(2S)-3,3,3-trifluoro-2-hydroxypropyl]-2,4-dihydro-3H-1,2,4-triazol-3-one] the same measures were 6.14, 5.91 and 0.6.
Regarding `O=c1n(Cc2ncn(-c3cnccc3NCC3(O)CC3)n2)nc(-c2ccc(Cl)cc2)n1C[C@H](O)C(F)(F)F` [Example 4, 5-(4-Chlorophenyl)-2-{[1-(4-{[(1-hydroxycyclopropyl)methyl]amino}pyridin-3-yl)-1H-1,2,4-triazol-3-yl]methyl}-4-[(2S)-3,3,3-trifluoro-2-hydroxypropyl]-2,4-dihydro-3H-1,2,4-triazol-3-one], the pIC50 in assay [1] was 6.90. In assay [2], the pIC50 is 6.94 and the “ratio IC50 hV2/hV1a” value came to 1.1.
With `O=C1CN(c2ccncc2-n2cnc(Cn3nc(-c4ccc(Cl)cc4)n(C[C@H](O)C(F)(F)F)c3=O)n2)CCN1` [Example 5, 4-{3-[3-({3-(4-Chlorophenyl)-5-oxo-4-[(2S)-3,3,3-trifluoro-2-hydroxypropyl]-4,5-dihydro-1H-1,2,4-triazol-1-yl}methyl)-1H-1,2,4-triazol-1-yl]pyridin-4-yl}piperazin-2-one], the pIC50 in assay [1] is 5.52; in assay [2], 6.74. Further, the “ratio IC50 hV2/hV1a” value in assay [2] is on record as 16.7.
For the compound `O=c1n(Cc2ncn(-c3cnccc3N3CCS(=O)(=O)CC3)n2)nc(-c2ccc(Cl)cc2)n1C[C@H](O)C(F)(F)F` [Example 6, 5-(4-Chlorophenyl)-2-({1-[4-(1,1-dioxidothiomorpholin-4-yl)pyridin-3-yl]-1H-1,2,4-triazol-3-yl}methyl)-4-[(2S)-3,3,3-trifluoro-2-hydroxypropyl]-2,4-dihydro-3H-1,2,4-triazol-3-one], the pIC50 in assay [1] was 5.60. For the same compound, in assay [2], the pIC50 is 7.15 and the “ratio IC50 hV2/hV1a” value worked out at 35.0.
For the compound `O=C1NCCN1CCNc1ccncc1-n1cnc(Cn2nc(-c3ccc(Cl)cc3)n(C[C@H](O)C(F)(F)F)c2=O)n1` [Example 8, 5-(4-Chlorophenyl)-2-{[1-(4-{[2-(2-oxoimidazolidin-1-yl)ethyl]amino}pyridin-3-yl)-1H-1,2,4-triazol-3-yl]methyl}-4-[(2S)-3,3,3-trifluoro-2-hydroxypropyl]-2,4-dihydro-3H-1,2,4-triazol-3-one], the pIC50 in assay [1] is 5.52. In addition, in assay [2], the pIC50 was 6.23 and the “ratio IC50 hV2/hV1a” value was 5.1.
On to `O=c1n(Cc2ncn(-c3cnccc3N3CCC(F)(F)CC3)n2)nc(-c2ccc(Cl)cc2)n1C[C@H](O)C(F)(F)F` [Example 9, 5-(4-Chlorophenyl)-2-({1-[4-(4,4-difluoropiperidin-1-yl)pyridin-3-yl]-1H-1,2,4-triazol-3-yl}methyl)-4-[(2S)-3,3,3-trifluoro-2-hydroxypropyl]-2,4-dihydro-3H-1,2,4-triazol-3-one], for which the negative logarithm of the IC50 (pIC50) is 6.55 in assay [1] and 8.19 in assay [2]. In assay [2], the “ratio IC50 hV2/hV1a” value turned out to be 43.8.
For `O=c1n(Cc2ncn(-c3cnccc3NCC(F)(F)F)n2)nc(-c2ccc(Cl)cc2)n1C[C@H](O)C(F)(F)F` [Example 10, 5-(4-Chlorophenyl)-2-[(1-{4-[(2,2,2-trifluoroethyl)amino]pyridin-3-yl}-1H-1,2,4-triazol-3-yl)methyl]-4-[(2S)-3,3,3-trifluoro-2-hydroxypropyl]-2,4-dihydro-3H-1,2,4-triazol-3-one] the same measures were 6.35, 6.63 and 1.9.
For `O=c1n(Cc2ncn(-c3cnccc3NCCC(F)(F)F)n2)nc(-c2ccc(Cl)cc2)n1C[C@H](O)C(F)(F)F` [Example 11, 5-(4-Chlorophenyl)-4-[(2S)-3,3,3-trifluoro-2-hydroxypropyl]-2-[(1-{4-[(3,3,3-trifluoropropyl)amino]pyridin-3-yl}-1H-1,2,4-triazol-3-yl)methyl]-2,4-dihydro-3H-1,2,4-triazol-3-one] the same measures were 6.39, 6.02 and 0.4.
On to `CC(F)(F)CNc1ccncc1-n1cnc(Cn2nc(-c3ccc(Cl)cc3)n(C[C@H](O)C(F)(F)F)c2=O)n1` [Example 12, 5-(4-Chlorophenyl)-2-[(1-{4-[(2,2-difluoropropyl)amino]pyridin-3-yl}-1H-1,2,4-triazol-3-yl)methyl]-4-[(2S)-3,3,3-trifluoro-2-hydroxypropyl]-2,4-dihydro-3H-1,2,4-triazol-3-one], for which the pIC50 was 6.43 in assay [1] and 6.14 in assay [2]. The “ratio IC50 hV2/hV1a” value in assay [2] is reported as 0.5.
As for `CC1(C)CN(c2ccncc2-n2cnc(Cn3nc(-c4ccc(Cl)cc4)n(C[C@H](O)C(F)(F)F)c3=O)n2)CCN1` [Example 14, 5-(4-Chlorophenyl)-2-({1-[4-(3,3-dimethylpiperazin-1-yl)pyridin-3-yl]-1H-1,2,4-triazol-3-yl}methyl)-4-[(2S)-3,3,3-trifluoro-2-hydroxypropyl]-2,4-dihydro-3H-1,2,4-triazol-3-one], the figures for the pIC50 in assay [1] and in assay [2] were 5.27 and 6.56, respectively. Also, the “ratio IC50 hV2/hV1a” value in assay [2] stood at 19.2.
Turning to `O=c1n(Cc2ncn(-c3cnccc3N3CCOCC3)n2)nc(-c2ccc(Cl)cc2)n1C[C@H](O)C(F)(F)F` [Example 15, 5-(4-Chlorophenyl)-2-({1-[4-(morpholin-4-yl)pyridin-3-yl]-1H-1,2,4-triazol-3-yl}methyl)-4-[(2S)-3,3,3-trifluoro-2-hydroxypropyl]-2,4-dihydro-3H-1,2,4-triazol-3-one], the pIC50 in assay [1] is 6.11. Further, in assay [2], the negative logarithm of the IC50 (pIC50) is 7.72 and the “ratio IC50 hV2/hV1a” value worked out at 40.8.
Consider `CC(C)(C)OC(=O)CNc1ccncc1-n1cnc(Cn2nc(-c3ccc(Cl)cc3)n(C[C@H](O)C(F)(F)F)c2=O)n1` [Example 16, Tert-butyl N-{3-[3-({3-(4-chlorophenyl)-5-oxo-4-[(2S)-3,3,3-trifluoro-2-hydroxypropyl]-4,5-dihydro-1H-1,2,4-triazol-1-yl}methyl)-1H-1,2,4-triazol-1-yl]pyridin-4-yl}glycinate], for which the pIC50 in assay [1] was 5.81. Further, in assay [2], the pIC50 was 7.10 and the “ratio IC50 hV2/hV1a” value came out at 19.5.
On to `NC(=O)CNc1ccncc1-n1cnc(Cn2nc(-c3ccc(Cl)cc3)n(C[C@H](O)C(F)(F)F)c2=O)n1` [Example 17, N^2-{3-[3-({3-(4-Chlorophenyl)-5-oxo-4-[(2S)-3,3,3-trifluoro-2-hydroxypropyl]-4,5-dihydro-1H-1,2,4-triazol-1-yl}methyl)-1H-1,2,4-triazol-1-yl]pyridin-4-yl}glycinamide], for which the pIC50 in assay [1] is 5.55. Also, in assay [2], the pIC50 is 5.65 and the “ratio IC50 hV2/hV1a” value amounted to 1.3.
The corresponding values for `O=c1n(Cc2ncn(-c3cnccc3NCC3CS(=O)(=O)C3)n2)nc(-c2ccc(Cl)cc2)n1C[C@H](O)C(F)(F)F` [Example 18, 5-(4-Chlorophenyl)-2-{[1-(4-{[(1,1-dioxidothietan-3-yl)methyl]amino}pyridin-3-yl)-1H-1,2,4-triazol-3-yl]methyl}-4-[(2S)-3,3,3-trifluoro-2-hydroxypropyl]-2,4-dihydro-3H-1,2,4-triazol-3-one] are 5.71, 7.63 and 82.3.
For `CC(C)(C)OC(=O)CCNc1ccncc1-n1cnc(Cn2nc(-c3ccc(Cl)cc3)n(C[C@H](O)C(F)(F)F)c2=O)n1` [Example 19, Tert-butyl N-{3-[3-({3-(4-chlorophenyl)-5-oxo-4-[(2S)-3,3,3-trifluoro-2-hydroxypropyl]-4,5-dihydro-1H-1,2,4-triazol-1-yl}methyl)-1H-1,2,4-triazol-1-yl]pyridin-4-yl}-beta-alaninate] the same measures were 5.65, 6.37 and 5.2.

Broadly, the pIC50 is −log10 of the IC50, conventionally taken in molar units.
